Data published in PMC10724293, “New ruthenium-xanthoxylin complex eliminates colorectal cancer stem cells by targeting the heat shock protein 90 chaperone” (Cell Death & Disease, 2023).
pIC50: −log10 of the molar value.

Legend:
B16-F10 = test: Alamar blue cytotoxicity assay; assay type: cell-based, mouse; conditions: 72 h, read-out: IC50 and 95%CI
Description: (§1) The Alamar blue assay was used to determine cell viability as previously described. Cells were seeded into 96-well plates at a density of 7 × 10^3 cells per well for adherent cells or 3 × 10^4 cells per well for suspended cells. The drug was added to each well after 24 h of incubation for adherent cells or immediately for suspended cells and incubated for an additional 72 h. […] Each well received 100 µM resazurin (Sigma-Aldrich Co. St. Louis, MO, United States) four (for cell lines) or 24 (for primary culture) h before the end of the incubation. A SpectraMax 190 Microplate Reader (Molecular Devices, Sunnyvale, CA, USA) was used to measure absorbance at 570 and 600 nm.

4T1 = test: Alamar blue cytotoxicity assay; assay type: cell-based, mouse; conditions: 72 h, read-out: IC50 and 95%CI
Description: as §1

[1] = test system: CR01 (colorectal carcinoma); test: Alamar blue viability of primary cancer cells; assay type: cell-based, human; conditions: primary CRC (first listed); 25 μg/ml (RXC 31.3 μM, DOX 46 μM); 96 h
Description: as §1
(§2) CR03 (metastatic cholangiocarcinoma) CR04 (malignant papillary mesothelioma) […]
(§3) Figure S1. […] Cells were exposed to 25 […]
(§4) measured after 96 h using the Alamar blue assay. The data are presented as the […]
(§5) mean ± S.E.M. of four replicates. * P < 0.05 compared to CTL by one-way ANOVA […]
(§6) followed by Dunnett's multiple comparisons test. […]

[2] = test system: CR04 (malignant papillary mesothelioma); test: Alamar blue viability of primary cancer cells; assay type: cell-based, human; conditions: primary papilliferous malignant mesothelioma; 25 μg/ml (RXC 31.3 μM, DOX 46 μM); 96 h
Description: as §1, §2, §3, §4, §5, §6

[3] = test system: CR03 (metastatic cholangiocarcinoma); test: Alamar blue viability of primary cancer cells; assay type: cell-based, human; conditions: 25 μg/ml (RXC 31.3 μM, DOX 46 μM), 96 h
Description: as §1, §2, §3, §4, §5, §6

HCT116 cells [4] = test: Wound healing assay; assay type: cell-based, human; conditions: 72 h, noncytotoxic concentrations
Description: Wound healing assays were carried out as previously described, with some modifications. Cells were grown to 80–90% confluency in 12-well plates, and a wound was created by dragging a plastic pipette tip across the cell surface. The remaining cells were washed three times in saline to remove cell debris before being incubated in serum-free medium and treated with the drug. Using an optical microscope, migrating cells in front of the wound were photographed after 0 and 72 h of incubation (Nikon, TS 100). ImageJ software was used to calculate the wound area (NIH, USA).

MRC-5 = test: Alamar blue cytotoxicity assay, noncancerous cells; assay type: cell-based, human; conditions: MRC-5 noncancerous cells, 72 h, read-out: IC50 and 95%CI
Description: as §1

HCT116 cells [5] = test: CRC tumor growth xenograft model; assay type: in vivo, C. B-17 SCID mice; conditions: 2 mg/kg i.p. once a day for 2 weeks; control 0.81 ± 0.09 g
Description: HCT116 cells (10^7 cells/500 μl) were inoculated subcutaneously into the left front armpit of mice, as previously reported. The animals were then treated intraperitoneally (200 μl/animal) once a day for 2 weeks. […] The animals were euthanized with an anesthetic overdose (thiopental, 100 mg/kg) 1 day after treatment ended, and tumors were excised, weighed, and processed for histological analysis. The inhibition ratio (percent) was calculated as follows: inhibition ratio (percent) = [(A − B)/A] × 100, where A is the average tumor weight of the negative control and B is the treated group.

HCT116 cells [6] = test: Mitochondrial transmembrane potential, rhodamine 123 flow cytometry; assay type: cell-based, human; conditions: 24 h, all concentrations tested
Description: To ensure mitochondrial transmembrane potential, the cells were stained with rhodamine 123 (5 µg/ml, Sigma-Aldrich Co.) at 37 °C for 15 min in the dark. The cells were then washed with saline and incubated in saline for 30 min in the dark at 37 °C, and cell fluorescence was determined using flow cytometry.

HepG2 cells = conditions: C. B-17 SCID mice engrafted with HepG2 cells; cited from earlier work
HCT116 cells [7] = test: CRC experimental lung metastasis xenograft model; assay type: in vivo, C. B-17 SCID mice; conditions: 2 mg/kg i.p. every other day for 4 weeks; control 5.0 ± 0.5
Description: HCT116 cells (2 × 10^6 cells/100 μl) were injected into the tail vein of each mouse. The animals were then treated intraperitoneally (200 μl/animal) every other day for 4 weeks. […] The animals were euthanized with an anesthetic overdose (thiopental, 100 mg/kg) 1 day after treatment ended, and their lungs were excised and fixed in 4% formaldehyde. The number of lung macrometastases per animal was counted and processed for histological analysis.

HCT116 cells [8] = test: Protein expression levels by flow cytometry; assay type: cell-based, human; conditions: 10 μM, 24 h
Description: Flow cytometry was used to measure protein expression levels using primary antibodies conjugated with specific fluorochromes, as detailed in Table S5. For intracellular protein staining, cells were collected and resuspended in 0.5–1 ml of 4% formaldehyde for 10 min at 37 °C. The tubes were then kept on ice for 1 min and permeabilized for 30 min on ice by slowly adding ice-cold 100% methanol to prechilled cells while gently vortexing to a final concentration of 90% methanol. After washing with incubation buffer (0.5% bovine serum albumin in PBS), antibodies were added and incubated at room temperature for 1 h. Finally, the cells were washed with PBS, and the fluorescence of the cells was measured using flow cytometry.
For cell surface protein staining, cells were washed with incubation buffer (0.5% bovine serum albumin in PBS), and then antibodies were added and incubated for 1 h at room temperature. The cells were then washed with PBS, and cell fluorescence was measured using flow cytometry. To select viable cells for quantification of CD133-positive cells, YO-PRO-1 (Sigma-Aldrich Co.) was used.
For all flow cytometry analyses, cell fluorescence was measured with a BD LSRFortessa cytometer and analyzed by BD FACSDiva Software (BD Biosciences) and FlowJo Software 10 (FlowJo LLC; Ashland, OR, USA). At least 10,000 events were evaluated per sample for intracellular staining, and at least 30,000 events were acquired per sample for cell surface protein staining. FSC-A versus FCS-H and SCC-A versus SCC-H were used to remove the doublets. The analysis excluded cellular debris.

cis-[Ru(phen)2(xant)](PF6) [RXC]
pIC50 (B16-F10): 5.59
pIC50 (4T1): 5.04
reduced cell viability [1]: 79.8%
reduced cell viability [2]: 79.6%
reduced cell viability [3]: 79.2%
cell migration (HCT116 cells [4]): inhibited cell migration
pIC50 (MRC-5): 4.67
mean weight of tumors (HCT116 cells [5]): 0.6 ± 0.05 g
lung histology (2 mg/kg, one animal): hemorrhage with hemosiderin deposits
hematological analysis (RXC 2 mg/kg, DOX 0.8 mg/kg, i.p. once a day for 2 weeks): reduction in erythrocytes
animals died during the treatment (RXC 2 mg/kg, DOX 0.8 mg/kg, i.p. once a day for 2 weeks, n = 15 per group): four
body weight (RXC 2 mg/kg, DOX 0.8 mg/kg, i.p. once a day for 2 weeks, p < 0.05): decrease in body weight
liver histology (RXC 2 mg/kg, DOX 0.8 mg/kg, mainly in treated animals): focal areas of hepatocyte coagulation necrosis
kidney histology (RXC 2 mg/kg, DOX 0.8 mg/kg, more evident than in control): focal areas of coagulation necrosis of the renal cortex tubules
mitochondrial transmembrane potential (HCT116 cells [6]): mitochondrial depolarization
tumor growth (HepG2 cells): suppressed tumor growth
mean number of pulmonary metastatic nodules (HCT116 cells [7]): 1.3 ± 0.4
E-cadherin expression (HCT116 cells [8]): increased
LC3B expression (HCT116 cells [8]): increased
expression level of 4EBP1 (pT36/pT45) (HCT116 cells [8]): decreased
expression level of Akt1 (HCT116 cells [8]): decreased
expression level of Akt (pS473) (HCT116 cells [8]): decreased
expression level of Akt (pT308) (HCT116 cells [8]): no change
expression level of GSK-3β (pS9) (HCT116 cells [8]): decreased
expression level of NF-κB p65 (pS529) (HCT116 cells [8]): decreased
expression level of PI3K p85/p55 (pT458/pT199) (HCT116 cells [8]): no change
expression level of S6 (pS235/pS236) (HCT116 cells [8]): no change
expression level of elF4E (pS209) (HCT116 cells [8]): no change
expression level of mTOR (pS2448) (HCT116 cells [8]): decreased
expression of Hsp90 protein (HCT116 cells [8]): decreased
levels of PARP cleavage (Asp214) (HCT116 cells [8]): increased
p62/SQSTM1 expression (HCT116 cells [8]): decreasing
vimentin expression (HCT116 cells [8]): decreased
